Assays:
johnsongrass = test: Test C postemergence; assay type: in vivo, Sorghum halepense; settings: for Plant response rating (scale of 0 to 100 where 0 is no effect and 100 is complete control), Johnsongrass: Postemergence, 31 g ai/ha, visually evaluated after 13 to 15 days; for Johnsongrass plant response rating / Plant response rating, Johnsongrass: postemergence; for Johnsongrass plant response rating: 62 g ai/ha, scale 0 to 100
In short: (§1)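 In this greenhouse assay, seeded soil (loam plus sand) or emerged seedlings in peat-vermiculite medium were treated with formulated compound. Roughly two weeks later (13–15 days), each species was scored visually relative to controls, from 0 for no effect to 100 for complete control.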

wheat = test: Test C postemergence; assay type: in vivo, Triticum aestivum; settings: for Plant response rating, Wheat / Wheat plant response rating: postemergence; for Plant response rating, Wheat: 250 g ai/ha, scale 0 to 100 (0 no effect, 100 complete control); for Wheat plant response rating: scale 0 to 100
In short: as §1

corn = test: Test C postemergence; assay type: in vivo, Zea mays; settings: for Plant response rating (scale of 0 to 100 where 0 is no effect and 100 is complete control), Corn: Postemergence, 31 g ai/ha, visually evaluated after 13 to 15 days; for Corn plant response rating / Plant response rating, Corn: postemergence; for Corn plant response rating: 62 g ai/ha, scale 0 to 100
In short: as §1

crabgrass, large [1] = test: Test C preemergence; assay type: in vivo, Digitaria sanguinalis; settings: preemergence; for Plant response rating, Crabgrass, Large: 125 g ai/ha, scale 0 to 100, 0 = no effect, 100 = complete control
In short: as §1

pigweed = test: Test A postemergence; assay type: in vivo, Amaranthus retroflexus
In short: (§2)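 Seeds were sown in a loam soil–sand blend and given a directed soil spray preemergence; postemergence plants at 2–10 cm, one- to two-leaf stage, were sprayed with compound in non-phytotoxic solvent with surfactant. After about 10 days in a greenhouse, injury was visually rated against untreated controls (0 = no effect, 100 = complete control).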

crabgrass, large [2] = test: Test C postemergence; assay type: in vivo, Digitaria sanguinalis; settings: for Plant response rating (scale of 0 to 100 where 0 is no effect and 100 is complete control), Crabgrass, Large: Postemergence, 31 g ai/ha, visually evaluated after 13 to 15 days; for Crabgrass, Large plant response rating / Plant response rating, Crabgrass, Large: postemergence; for Crabgrass, Large plant response rating: 62 g ai/ha, scale 0 to 100
In short: as §1

oilseed rape = test: Test C postemergence; assay type: in vivo, Brassica napus; settings: for Oilseed Rape plant response rating / Plant response rating, Oilseed Rape: postemergence; for Oilseed Rape plant response rating: 62 g ai/ha, scale 0 to 100
In short: as §1

barnyardgrass = test: Test B flood; assay type: in vivo, Echinochloa crus-galli; settings: 250 g ai/ha, visual rating on 0 to 100 scale (0 no effect, 100 complete control), 13 to 15 days
In short: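 Each compound is applied to the floodwater of pots holding 2-leaf seedlings, water standing 3 cm over the soil throughout. Plants stay in a greenhouse 13 to 15 days before visual scoring against controls from 0 (no effect) to 100 (complete control).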

foxtail, giant = test: Test C preemergence; assay type: in vivo, Setaria faberii; settings: preemergence; for Plant response rating, Foxtail, Giant: 125 g ai/ha, scale 0 to 100, 0 = no effect, 100 = complete control
In short: as §1

waterhemp = test: Test C preemergence; assay type: in vivo, Amaranthus rudis; settings: preemergence; for Plant response rating, Waterhemp: 125 g ai/ha, scale 0 to 100, 0 = no effect, 100 = complete control
In short: as §1

morningglory [3] = test: Test A preemergence; assay type: in vivo, Ipomoea spp.; settings: preemergence
In short: as §2

blackgrass = test: Test C postemergence; assay type: in vivo, Alopecurus myosuroides; settings: for Plant response rating (scale of 0 to 100 where 0 is no effect and 100 is complete control), Blackgrass: Postemergence, 31 g ai/ha, visually evaluated after 13 to 15 days; for Blackgrass plant response rating / Plant response rating, Blackgrass: postemergence; for Blackgrass plant response rating: 62 g ai/ha, scale 0 to 100
In short: as §1

morningglory [4] = test: Test A postemergence; assay type: in vivo, Ipomoea spp.
In short: as §2

[5] = 250 g ai/ha, scale 0 to 100 (0 no effect, 100 complete control)
[6] = 125 g ai/ha, scale 0 to 100, 0 no effect, 100 complete control
[7] = Postemergence, 31 g ai/ha, visually evaluated after 13 to 15 days
[8] = 31 g ai/ha, visual rating, scale 0 to 100 (0 no effect, 100 complete control), 13 to 15 days
[9] = 62 g ai/ha, scale 0 to 100 (0 no effect, 100 complete control), 13 to 15 days
[10] = 250 g ai/ha, scale 0 to 100, 0 is no effect, 100 is complete control
[11] = Postemergence, 500 g ai/ha, 0 to 100 scale (0 no effect, 100 complete control)
[12] = postemergence, 125 g ai/ha, about 10 days, visual rating on 0 to 100 scale (0 no effect, 100 complete control)
[13] = 500 g ai/ha, visual injury after approx. 10 days, 0 to 100 scale (0 no effect, 100 complete control)
[14] = Postemergence, 125 g ai/ha, 0 to 100 scale, 0 no effect, 100 complete control

CCc1cc(C(=O)NC(C)C)nn1Cc1ccnc(C(F)(F)F)c1 [Compound 139]
Plant response rating (scale of 0 to 100 where 0 is no effect and 100 is complete control), Johnsongrass (johnsongrass): 5 | Johnsongrass plant response rating (johnsongrass): 5 | Plant response rating, Johnsongrass (johnsongrass; [5]): 20 | Plant response rating, Johnsongrass (johnsongrass; [6]): 10 | Plant response rating (scale of 0 to 100 where 0 is no effect and 100 is complete control), Wheat (wheat; [7]): 5 | Plant response rating, Wheat (wheat): 25 | Wheat plant response rating (wheat): 5 | Plant response rating (scale of 0 to 100 where 0 is no effect and 100 is complete control), Corn (corn): 5 | Corn plant response rating (corn): 10 | Plant response rating, Corn (corn; [5]): 20 | Plant response rating, Corn (corn; [6]): 15 | Crabgrass, Large plant response rating (crabgrass, large [1]; [8]): 100 | Crabgrass, Large plant response rating (crabgrass, large [1]; [9]): 100 | Plant response rating, Crabgrass, Large (crabgrass, large [1]; 13 to 15 days): 100 | Crabgrass, Large plant response rating (crabgrass, large [1]; [10]): 100 | Pigweed plant response rating (pigweed; [11]): 100 | Pigweed plant response rating (pigweed; [12]): 90 | Plant response rating (scale of 0 to 100 where 0 is no effect and 100 is complete control), Crabgrass, Large (crabgrass, large [2]): 10 | Crabgrass, Large plant response rating (crabgrass, large [2]): 10 | Plant response rating, Crabgrass, Large (crabgrass, large [2]; [5]): 20 | Plant response rating, Crabgrass, Large (crabgrass, large [2]; [6]): 15 | Plant response rating (scale of 0 to 100 where 0 is no effect and 100 is complete control), Oilseed Rape (oilseed rape; [7]): 20 | Oilseed Rape plant response rating (oilseed rape): 45 | Plant response rating, Oilseed Rape (oilseed rape; [5]): 50 | Plant response rating, Oilseed Rape (oilseed rape; [6]): 50 | Plant response rating, Barnyardgrass (barnyardgrass): 60 | Foxtail, Giant plant response rating (foxtail, giant; [8]): 90 | Foxtail, Giant plant response rating (foxtail, giant; [9]): 100 | Plant response rating, Foxtail, Giant (foxtail, giant; 13 to 15 days): 100 | Foxtail, Giant plant response rating (foxtail, giant; [10]): 100 | Waterhemp plant response rating (waterhemp; [8]): 85 | Waterhemp plant response rating (waterhemp; [9]): 100 | Plant response rating, Waterhemp (waterhemp; 13 to 15 days): 100 | Waterhemp plant response rating (waterhemp; [10]): 100 | Morningglory plant response rating (morningglory [3]; 125 g ai/ha, visual injury, 0 to 100 scale, approx. 10 days): 40 | Morningglory plant response rating (morningglory [3]; [13]): 100 | Plant response rating (scale of 0 to 100 where 0 is no effect and 100 is complete control), Blackgrass (blackgrass): 20 | Blackgrass plant response rating (blackgrass): 20 | Plant response rating, Blackgrass (blackgrass; [5]): 35 | Plant response rating, Blackgrass (blackgrass; [6]): 20 | Morningglory plant response rating (morningglory [4]; [11]): 100 | Morningglory plant response rating (morningglory [4]; [12]): 60

CCCc1cc(C(=O)NOCC)nn1Cc1ccnc(C(F)(F)F)c1 [Compound 185]
Plant response rating (scale of 0 to 100 where 0 is no effect and 100 is complete control), Johnsongrass (johnsongrass): 0 | Johnsongrass plant response rating (johnsongrass): 0 | Plant response rating, Johnsongrass (johnsongrass; [5]): 5 | Plant response rating, Johnsongrass (johnsongrass; [6]): 0 | Plant response rating, Wheat (wheat): 10 | Wheat plant response rating (wheat): 5 | Plant response rating (scale of 0 to 100 where 0 is no effect and 100 is complete control), Corn (corn): 5 | Corn plant response rating (corn): 5 | Plant response rating, Corn (corn; [5]): 65 | Plant response rating, Corn (corn; [6]): 5 | Crabgrass, Large plant response rating (crabgrass, large [1]; [8]): 80 | Crabgrass, Large plant response rating (crabgrass, large [1]; [9]): 100 | Plant response rating, Crabgrass, Large (crabgrass, large [1]; 13 to 15 days): 100 | Crabgrass, Large plant response rating (crabgrass, large [1]; [10]): 100 | Pigweed plant response rating (pigweed; [14]): 60 | Pigweed plant response rating (pigweed; [11]): 100 | Plant response rating (scale of 0 to 100 where 0 is no effect and 100 is complete control), Crabgrass, Large (crabgrass, large [2]): 5 | Crabgrass, Large plant response rating (crabgrass, large [2]): 5 | Plant response rating, Crabgrass, Large (crabgrass, large [2]; [5]): 45 | Plant response rating, Crabgrass, Large (crabgrass, large [2]; [6]): 5 | Oilseed Rape plant response rating (oilseed rape): 40 | Plant response rating, Oilseed Rape (oilseed rape; [5]): 70 | Plant response rating, Oilseed Rape (oilseed rape; [6]): 50 | Plant response rating, Barnyardgrass (barnyardgrass): 20 | Foxtail, Giant plant response rating (foxtail, giant; [8]): 60 | Foxtail, Giant plant response rating (foxtail, giant; [9]): 90 | Plant response rating, Foxtail, Giant (foxtail, giant; 13 to 15 days): 98 | Foxtail, Giant plant response rating (foxtail, giant; [10]): 100 | Waterhemp plant response rating (waterhemp; [8]): 100 | Waterhemp plant response rating (waterhemp; [9]): 100 | Plant response rating, Waterhemp (waterhemp; 13 to 15 days): 100 | Waterhemp plant response rating (waterhemp; [10]): 100 | Morningglory plant response rating (0 to 100 scale) (morningglory [3]; 125 g ai/ha, visual injury approx. 10 days after treatment): 40 | Morningglory plant response rating (morningglory [3]; [13]): 90 | Plant response rating (scale of 0 to 100 where 0 is no effect and 100 is complete control), Blackgrass (blackgrass): 0 | Blackgrass plant response rating (blackgrass): 0 | Plant response rating, Blackgrass (blackgrass; [5]): 5 | Plant response rating, Blackgrass (blackgrass; [6]): 5 | Morningglory plant response rating (morningglory [4]; [14]): 20 | Morningglory plant response rating (morningglory [4]; [11]): 90

Reference: patent publication US20150105252A1, “SUBSTITUTED PYRAZOLES AS HERBICIDES” (E I DU PONT DE NEMOURS AND COMPANY, priority 2013, published 2015)
